The source of these data is patent publication US20250084049A1, “POLYCATIONIC SALTS OF PHENOLIC COMPOUNDS AND USES THEREOF” (Firmenich Incorporated, priority 2021, published 2025).

Molecules are shown by their SMILES.

This series in a line: storage of the aqueous salt solution at room temperature under nitrogen. As to conditions: ~10% aqueous solution, stored for several days at room temperature under nitrogen. It counts as physicochemical. The method, then: Naringenin (500 mg, 1.84 mmol) was suspended in water (2 mL) and while stirring a solution of NaOH (2 equiv.) in water (3 mL) was added dropwise. After addition was complete, the reaction was bubbled with nitrogen and stirring continued until the solution became homogeneous. […] MS 273 (M+3H−2Na)^+.
Naringenin (500 mg, 1.84 mmol) was suspended in water (2 mL) and while stirring a solution of KOH (2 equiv.) in water (3 mL) was added dropwise. After addition was complete, the reaction was bubbled with nitrogen and stirring continued until the solution became homogeneous. […] MS 273 (M+3H−2K)^+.
Phloterin (500 mg, 1.82 mmol) was suspended in water (2 mL) and while stirring a solution of NaOH (2 equiv.) in water (3 mL) was added dropwise. After addition was complete, the reaction was bubbled with nitrogen and stirring continued until the solution became homogeneous. […] MS 275 (M+3H−2Na)^+.
Phloterin (500 mg, 1.82 mmol) was suspended in water (2 mL) and while stirring a solution of KOH (2 equiv.) in water (3 mL) was added dropwise. After addition was complete, the reaction was bubbled with nitrogen and stirring continued until the solution became homogeneous. […] MS 275 (M+3H−2K)^+.
For `O=C1C[C@@H](c2ccc(O)cc2)Oc2cc(O)cc(O)c21.[Na].[Na]` [Example 1, Disodium Salt of Naringenin], the “stability of the solution on storage” value is given as “without any significant change”.

For `O=C1C[C@@H](c2ccc(O)cc2)Oc2cc(O)cc(O)c21.[K].[K]` [Example 2, Dipotassium Salt of Naringenin], the “stability of the solution on storage” value is listed as “without any significant change”. The same measure for `O=C(CCc1ccc(O)cc1)c1c(O)cc(O)cc1O.[Na].[Na]` [Example 3, Disodium Salt of Phloterin]: “without any significant change”; for `O=C(CCc1ccc(O)cc1)c1c(O)cc(O)cc1O.[K].[K]` [Example 4, Dipotassium Salt of Phloterin]: “without any significant change”.
